Measurements published in US20150018311A1, “THERAPEUTIC BORON-CONTAINING COMPOUNDS” (priority 2012, published 2015).

Experiments:
[1] = system: Candida albicans (ATCC 90028); experiment: Growth in liquid media in presence of test compound; assay type: cell-based
[2] = system: Escherichia coli (ATCC 25922); experiment: as above; assay type: cell-based
[3] = system: Pseudomonas aeruginosa (ATCC 27853); experiment: as above; assay type: cell-based
[4] = system: Staphylococcus aureus (ATCC 25923); experiment: as above; assay type: cell-based
[5] = system: Streptococcus pyogenes (ATCC 19615); experiment: as above; assay type: cell-based
M. tuberculosis = experiment: Growth on solid media in presence of test compound; assay type: cell-based, Mycobacterium tuberculosis; conditions: result on solid media
[6] = system: Candida albicans ATCC90028 (wild type); experiment: Filter paper disc antifungal assay on agar plates; assay type: cell-based; conditions: 5 mm disc, 37° C. 24 hours
Procedure: (§1) Compound 22 (the chloride salt) of table 1 was dissolved and the solution applied to a filter paper disc of diameter 5 mm. The filter paper discs were placed on plates containing the following strains of Candida albicans:
ATCC90028 (“wild type”, i.e. not resistant to nystatin or fluconazole)
(§2) The compound was applied at concentrations of 0.5, 1, 5, 10, 25 and 50 μg/ml. Nystatin and fluconazole at the same concentrations were applied in the same manner. […] All strains were tested at least three times.
(§3) Clearly, the higher the number, the greater the antifungal activity.

[7] = system: Candida albicans ATCC38247 (resistant to fluconazole); experiment: Filter paper disc antifungal assay on agar plates; assay type: cell-based; conditions: 5 mm disc, 37° C. 24 hours
Procedure: as §1
ATCC38247 (resistant to fluconazole)
as §2, §3

[8] = system: Candida albicans MYA576 (resistant to nystatin); experiment: Filter paper disc antifungal assay on agar plates; assay type: cell-based; conditions: 5 mm disc, 37° C. 24 hours
Procedure: as §1
MYA576 (resistant to nystatin).
as §2, §3

Candida albicans = experiment: Filter paper disc antifungal assay, Candida albicans strains overall; assay type: cell-based
Procedure: as §1, §2, §3

[9] = system: Mycobacterium tuberculosis (H37Rv); experiment: Growth in liquid media in presence of test compound; assay type: cell-based
E. faecalis = experiment: as above; assay type: cell-based
Procedure: The strains were grown at 37° C. and after suitable cell concentrations had been reached, 100 μL of each cell suspension was added to a tube with growth media and test compound. Cultivation of the bacteria was then carried out in the presence of each test compound at 37° C. and the tubes examined for visible growth. The compounds were tested at concentrations of either 500 mg/l, 50 mg/l or 5 mg/l. This assay was repeated twice.
Some compounds were only tested against some test organisms. It will be appreciated that the charge of these molecules will depend on the environment, some of the Examples are shown with a suitable counter ion, some without.

## CC1(C)C2CC3OB([C@@H](CNC(=O)[C@@H](N)Cc4ccccc4)Cc4ccc5ccccc5c4)O[C@]3(C)C1C2.Cl (stereo partly drawn) [Compound 22, α-naphthyl-β-amino-(−)-pinanedioleboronate-N-]
[1]; 5 mg/L
  Growth in the presence of test compound, C. albicans: +
[1]; 50 mg/L
  Growth in the presence of test compound, C. albicans: −
[1]; 500 mg/L
  Growth in the presence of test compound, C. albicans: ±
[2]; 5 mg/L
  Growth in the presence of test compound, E. coli: +
[2]; 50 mg/L
  Growth in the presence of test compound, E. coli: +
[2]; 500 mg/L
  Growth in the presence of test compound, E. coli: +
[3]; 5 mg/L
  Growth in the presence of test compound, P. aeruginosa: +
[3]; 50 mg/L
  Growth in the presence of test compound, P. aeruginosa: ±
[3]; 500 mg/L
  Growth in the presence of test compound, P. aeruginosa: +
[4]; 5 mg/L
  Growth in the presence of test compound, S. aureus: +
[4]; 50 mg/L
  Growth in the presence of test compound, S. aureus: ±
[4]; 500 mg/L
  Growth in the presence of test compound, S. aureus: +
[5]; 5 mg/L
  Growth in the presence of test compound, S. pyogenes: +
[5]; 50 mg/L
  Growth in the presence of test compound, S. pyogenes: −
[5]; 500 mg/L
  Growth in the presence of test compound, S. pyogenes: +
M. tuberculosis; 5 mg/L
  Growth in the presence of test compound, M. tuberculosis: +
M. tuberculosis; 50 mg/L
  Growth in the presence of test compound, M. tuberculosis: +
M. tuberculosis; 500 mg/L
  Growth in the presence of test compound, M. tuberculosis: −
[6]; ATCC90028, 0.5 μg/ml
  diameter of the area which did not show any Candida growth: 5 millimeters
[6]; ATCC90028, 1 μg/ml
  diameter of the area which did not show any Candida growth: 6 millimeters
[6]; ATCC90028, 5 μg/ml
  diameter of the area which did not show any Candida growth: 6.875 millimeters
[6]; ATCC90028, 10 μg/ml
  diameter of the area which did not show any Candida growth: 11.75 millimeters
[6]; ATCC90028, 25 μg/ml
  diameter of the area which did not show any Candida growth: 15.25 millimeters
[6]; ATCC90028, 50 μg/ml
  diameter of the area which did not show any Candida growth: 17 millimeters
[7]; ATCC38247, 0.5 μg/ml
  diameter of the area which did not show any Candida growth: 5 millimeters
[7]; ATCC38247, 1 μg/ml
  diameter of the area which did not show any Candida growth: 5.21 millimeters
[7]; ATCC38247, 5 μg/ml
  diameter of the area which did not show any Candida growth: 7.43 millimeters
[7]; ATCC38247, 10 μg/ml
  diameter of the area which did not show any Candida growth: 12.86 millimeters
[7]; ATCC38247, 25 μg/ml
  diameter of the area which did not show any Candida growth: 17.29 millimeters
[7]; ATCC38247, 50 μg/ml
  diameter of the area which did not show any Candida growth: 19.14 millimeters
[8]; MYA576, 0.5 μg/ml
  diameter of the area which did not show any Candida growth: 5.33 millimeters
[8]; MYA576, 1 μg/ml
  diameter of the area which did not show any Candida growth: 6.67 millimeters
[8]; MYA576, 5 μg/ml
  diameter of the area which did not show any Candida growth: 10.67 millimeters
[8]; MYA576, 10 μg/ml
  diameter of the area which did not show any Candida growth: 12.67 millimeters
[8]; MYA576, 25 μg/ml
  diameter of the area which did not show any Candida growth: 14.33 millimeters
[8]; MYA576, 50 μg/ml
  diameter of the area which did not show any Candida growth: 15.67 millimeters
Candida albicans
  lowest concentration at which activity was shown: 1 µg/mL

## NCCCCC(N)C(=O)NC(CB(O)O)Cc1ccccc1 (stereo not shown) [Compound 34]
[9]; 5 mg/L
  Growth in the presence of test compound, M. tuberculosis: +
[9]; 50 mg/L
  Growth in the presence of test compound, M. tuberculosis: −
[9]; 500 mg/L
  Growth in the presence of test compound, M. tuberculosis: −
[2]; 5 mg/L
  Growth in the presence of test compound, E. coli: +
[2]; 50 mg/L
  Growth in the presence of test compound, E. coli: +
[2]; 500 mg/L
  Growth in the presence of test compound, E. coli: −
[3]; 5 mg/L
  Growth in the presence of test compound, P. aeruginosa: +
[3]; 50 mg/L
  Growth in the presence of test compound, P. aeruginosa: +
[3]; 500 mg/L
  Growth in the presence of test compound, P. aeruginosa: −
[4]; 5 mg/L
  Growth in the presence of test compound, S. aureus: +
[4]; 50 mg/L
  Growth in the presence of test compound, S. aureus: +
[4]; 500 mg/L
  Growth in the presence of test compound, S. aureus: −
E. faecalis; 5 mg/L
  Growth in the presence of test compound, E. faecalis: +
E. faecalis; 50 mg/L
  Growth in the presence of test compound, E. faecalis: +
E. faecalis; 500 mg/L
  Growth in the presence of test compound, E. faecalis: −
